Blank lines part the entries; values can stand above or below the compound they belong to.
Assays:
[1] = Decoquinate concentration in mouse plasma and liver, with and without prolongation solution; type: in vivo; parameters: concentration of the drug in plasma / concentration of the drug in liver: unit not given here; settings: mice; for concentration of the drug in liver / concentration of the drug in plasma: 0.5 ml injected
Procedure: (§1) The following examples used laboratory rats and mice.
Decoquinate solution was mixed with two solutions: one with the prolongation solution of Example 1 and one without the prolongation solution. Each solution contained an identical and normal dosage of the drug. In both cases, 0.5 ml of solution was injected into mice of approximately identical weight. The concentration of the drug in plasma and liver was chected by high performance then layer chromatography in mouse liver and plasma.

[2] = Glipizide serum level in rats after one-time administration; type: in vivo; settings: rat, other: injected, about 0.25 mg in 3 ml prolongation solution of Example 1, injected
Procedure: as §1
Serum testing was conducted after one-time initial administration.

[3] = single 5 mg dose; cited from earlier work
[4] = after 24 hours; cited from earlier work
[5] = in vivo; settings: rat, Quinine serum level
[6] = rat, in vivo, 24 h
[7] = Rifampicin serum level in rats after one-time administration; type: in vivo; settings: for concentration at 14 h / concentration at 32 h: serum
Procedure: as §1
Serum testing was conducted after one-time initial administration to rats. The Rifampicin level remained:
Control test using water alone on 8 mg/rat. […] Thus, the prolongation solution is effective at reduced drug administration levels.

[8] = human, single 600 mg dose; cited from earlier work
[9] = single 2.0 gram dose, cited from earlier work
[10] = NE-No Prolongation Solution, 0.5 hours
[11] = NE-No Prolongation Solution, 1 hour
[12] = NE-No Prolongation Solution, 2 hours
[13] = NE-No Prolongation Solution, 4 hours
[14] = NE-No Prolongation Solution, 8 hours
[15] = NE-No Prolongation Solution, 24 hours
[16] = PF-Prolongation Solution of Example 1, 0.5 hours
[17] = PF-Prolongation Solution of Example 1, 1 hour
[18] = PF-Prolongation Solution of Example 1, 2 hours
[19] = PF-Prolongation Solution of Example 1, 4 hours
[20] = PF-Prolongation Solution of Example 1, 8 hours
[21] = PF-Prolongation Solution of Example 1, 24 hours
[22] = rat, about 18 mg in 3 ml prolongation solution of Example 1, one-time administration
[23] = about 8 mg/rat with prolongation solution

Compound: CCCCCCCCCCOc1cc2c(O)c(C(=O)OCC)cnc2cc1OCC [Decoquinate]
- concentration of the drug in liver [1, 10]: 313860
- concentration of the drug in plasma [1, 10]: 25565
- concentration of the drug in liver [1, 11]: 430820
- concentration of the drug in plasma [1, 11]: 49911
- concentration of the drug in liver [1, 12]: 317950
- concentration of the drug in plasma [1, 12]: 43941
- concentration of the drug in liver [1, 13]: 323180
- concentration of the drug in plasma [1, 13]: 35427
- concentration of the drug in liver [1, 14]: 177470
- concentration of the drug in plasma [1, 14]: 25131
- concentration of the drug in liver [1, 15]: 7014
- concentration of the drug in plasma [1, 15]: 697
- concentration of the drug in liver [1, 16]: 149675
- concentration of the drug in plasma [1, 16]: 15213
- concentration of the drug in liver [1, 17]: 223565
- concentration of the drug in plasma [1, 17]: 24638
- concentration of the drug in liver [1, 18]: 191725
- concentration of the drug in plasma [1, 18]: 27350
- concentration of the drug in liver [1, 19]: 219615
- concentration of the drug in plasma [1, 19]: 29213
- concentration of the drug in liver [1, 20]: 181015
- concentration of the drug in plasma [1, 20]: 27882
- concentration of the drug in liver [1, 21]: 5549
- concentration of the drug in plasma [1, 21]: 457
- drop of Decoquinate level between 1 and 8 hours in plasma ([1]; no prolongation solution): 50%
- drop of Decoquinate level between 1 and 8 hours in liver ([1]; no prolongation solution, compared with the 50% drop in plasma): almost as much
- change in the level of Decoquinate between 1 and 8 hours ([1]; prolongation solution used): relatively little change
- change of concentration of drug in plasma and liver for eight hours ([1]; using the prolongation solution, compared to control): did not change

Compound: Cc1cnc(C(=O)NCCc2ccc(S(=O)(=O)NC(=O)NC3CCCCC3)cc2)cn1 [Glipizide]
- concentration at 26 h ([2]; 26 hours): 570 ng/mL
- concentration at 52 h ([2]; 52 hours): 1400 ng/mL
- Peak serum level of glipizide [3]: 0.1 to 0.5 µg/mL
- time of peak serum level post dose [3]: 1.6 h

Compound: Cc1noc(NS(=O)(=O)c2ccc(N)cc2)c1C [sulfisoxazole]
- mean time of peak plasma concentration [9]: 2.5 h
- original dose excreted in the urine ([9]; within 48 hours): About 97%

More lines, main results first:

- concentration at 45 min [5]: 4600 ng/mL
- concentration at 4 h [5]: 3000 ng/mL
- concentration at 9 h [5]: 1800 ng/mL
- concentration at 13 h [5]: 1600 ng/mL
- concentration at 15 h [5]: 2100 ng/mL
- concentration at 16 h [5]: 230 ng/mL
- concentration at 24 h [5]: 1400 ng/mL
- Quinine serum level [6]: 2400 ng/mL
Compound: C=C[C@H]1C[N@@]2CC[C@H]1C[C@H]2[C@H](O)c1ccnc2ccc(OC)cc12 [Quinine]
- plasma level after termination of quinine therapy [4]: barely detectable

- Rifampicin serum level ([7]; control using water alone, 8 mg/rat, after 14 hours): not being detected
- concentration at 14 h [7, 22]: 19000 ng/mL
- concentration at 32 h [7, 22]: 3500 ng/mL
- concentration at 14 h [7, 23]: 14000 ng/mL
- concentration at 32 h [7, 23]: 8500 ng/mL
Compound: CO[C@H]1/C=C/O[C@@]2(C)Oc3c(C)c(O)c4c(O)c(c(/C=N/N5CCN(C)CC5)c(O)c4c3C2=O)NC(=O)/C(C)=C\C=C\[C@H](C)[C@H](O)[C@@H](C)[C@@H](O)[C@@H](C)[C@H](OC(C)=O)[C@@H]1C [Rifampicin]
- Peak plasma levels of Rifampicin [8]: 3 to 13 µg/mL
- time of peak plasma level post dose [8]: approximately 1.8 hours

Source: US20130158132A1, “Formulation Solution Adapted To Prolong Plasma Times Of Drugs In Mammals Including Humans” (priority 2011, published 2013)
